Data from PubChem BioAssay AID192 (DTP/NCI, 2004).
“And” between values parts separate entries of the source, which are not always exact repeats. Equal entries are not always repeated. Toxic doses and inconclusive results are not listed.

Test system: BDF1 mice, B16 melanoma ip, median survival T/C
Test: NCI In Vivo Anticancer Drug Screen. Data for tumor model B16 Melanoma (intraperitoneal) in B6D2F1 (BDF1) mice
Conditions: endpoint: median survival time, higher = longer survival
Summary of the method: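 Vehicle-treated animals serve as the reference (C); treated animals (T) are scored for survival or tumor size after tumor transplantation.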

[1] = dose: 100.0 mg/kg/injection, schedule: Q01DX009 (ip), vehicle: Klucel (hydroxypropylcellulose) (HPC)
[2] = dose: 200.0 mg/kg/injection, schedule: Q01DX009 (ip), vehicle: Klucel (hydroxypropylcellulose) (HPC)
[3] = dose: 400.0 mg/kg/injection, schedule: Q01DX009 (ip), vehicle: Klucel (hydroxypropylcellulose) (HPC)
[4] = dose: 50.0 mg/kg/injection, schedule: Q01DX009 (ip), vehicle: Klucel (hydroxypropylcellulose) (HPC)
[5] = dose: 12.5 mg/kg/injection, schedule: Q01DX009 (ip), vehicle: saline with Tween-80
[6] = dose: 25.0 mg/kg/injection, schedule: Q01DX009 (ip), vehicle: saline with Tween-80
[7] = dose: 50.0 mg/kg/injection, schedule: Q01DX009 (ip), vehicle: saline with Tween-80
[8] = dose: 12.5 mg/kg/injection, schedule: Q01DX009 (ip), vehicle: saline
[9] = dose: 25.0 mg/kg/injection, schedule: Q01DX009 (ip), vehicle: saline
[10] = dose: 75.0 mg/kg/injection, schedule: Q01DX009 (ip), vehicle: saline with Tween-80

With `CCCCC[C@H](O)/C=C/[C@H]1[C@H](O)CC(=O)[C@@H]1C/C=C\CCCC(=O)O` the T/C (dose: 0.75 mg/kg/injection, schedule: Q04DX002 (ip), vehicle: Klucel (hydroxypropylcellulose) (HPC)) was 108 % of control, the T/C (dose: 1.5 mg/kg/injection, schedule: Q04DX002 (ip), vehicle: Klucel (hydroxypropylcellulose) (HPC)) was 97 % of control and the T/C (dose: 3.0 mg/kg/injection, schedule: Q04DX002 (ip), vehicle: Klucel (hydroxypropylcellulose) (HPC)) was 96 % of control. The T/C (dose: 6.0 mg/kg/injection, schedule: Q04DX002 (ip), vehicle: Klucel (hydroxypropylcellulose) (HPC)) was 92 % of control, the T/C (dose: 12.5 mg/kg/injection, schedule: Q04DX002 (ip), vehicle: other) was 96 % of control and the T/C (dose: 24.0 mg/kg/injection, schedule: Q04DX002 (ip), vehicle: Klucel (hydroxypropylcellulose) (HPC)) was 103 % of control. The T/C (dose: 25.0 mg/kg/injection, schedule: Q04DX002 (ip), vehicle: other) was 91 % of control, the T/C (dose: 100.0 mg/kg/injection, schedule: Q04DX002 (ip), vehicle: other) was 96 % of control and the T/C (dose: 200.0 mg/kg/injection, schedule: Q04DX002 (ip), vehicle: other) was 96 % of control.

`COc1ccc(NC(=O)Nc2ccc(C(C)C)cc2)cc1` was tested, and the T/C [1] was 94 % of control, the T/C [2] was 94 % of control and the T/C [3] was 97 % of control.

For `CCC(c1ccc(OC(=O)Cc2ccc(N(CCCl)CCCl)cc2)cc1)C(CC)c1ccc(OC(=O)Cc2ccc(N(CCCl)CCCl)cc2)cc1` (centres undefined), the T/C (dose: 6.25 mg/kg/injection, schedule: Q01DX009 (ip), vehicle: Klucel (hydroxypropylcellulose) (HPC)) was 106 % of control, the T/C (dose: 12.5 mg/kg/injection, schedule: Q01DX009 (ip), vehicle: Klucel (hydroxypropylcellulose) (HPC)) was 110 % of control and the T/C (dose: 25.0 mg/kg/injection, schedule: Q01DX009 (ip), vehicle: Klucel (hydroxypropylcellulose) (HPC)) was 96 % of control. For the same compound, the T/C [4] was 88 % of control, the T/C (dose: 64.0 mg/kg/injection, schedule: Q02DX009 (ip), vehicle: saline with Tween-80) was 95 % of control and 98 % of control and the T/C (dose: 128.0 mg/kg/injection, schedule: Q02DX009 (ip), vehicle: saline with Tween-80) was 91 % of control. The T/C (dose: 256.0 mg/kg/injection, schedule: Q02DX009 (ip), vehicle: saline with Tween-80) was 92 % of control.

In the case of `O=C(Nc1ccc(F)cc1)Nc1cccc2ccccc12`, the T/C [1] is reported as 97 % of control and the T/C [2] is reported as 94 % of control.

For `CC(C)N(C(=O)c1ccc(C(=O)N(c2ccccc2)C(C)C)cc1)c1ccccc1`, the T/C [5] was 103 % of control, the T/C [6] was 99 % of control and the T/C [7] was 99 % of control.

With `CCOC(=O)N(NC(=O)c1ccccc1)C(C)=O` the T/C (dose: 6.25 mg/kg/injection, schedule: Q01DX009 (ip), vehicle: other) was 101 % of control, the T/C (dose: 12.5 mg/kg/injection, schedule: Q01DX009 (ip), vehicle: other) was 99 % of control and the T/C (dose: 25.0 mg/kg/injection, schedule: Q01DX009 (ip), vehicle: other) was 95 % of control. The T/C (dose: 50.0 mg/kg/injection, schedule: Q01DX009 (ip), vehicle: other) was 95 % of control.

`COc1cc(/C=C/c2nc3ccccc3nc2/C=C/c2cc(OC)c(OC)c(OC)c2)cc(OC)c1OC` was tested, and the T/C (dose: 6.25 mg/kg/injection, schedule: Q01DX009 (ip), vehicle: saline with Tween-80) was 106 % of control and the T/C [5] was 97 % of control.

In the case of `CCCC1(CCC)CN(CO)C1=O`, the T/C [8] is reported as 100 % of control, the T/C [9] is reported as 100 % of control and the T/C (dose: 50.0 mg/kg/injection, schedule: Q01DX009 (ip), vehicle: saline) is reported as 106 % of control. For the same compound, the T/C (dose: 100.0 mg/kg/injection, schedule: Q01DX009 (ip), vehicle: saline) was 111 % of control and the T/C (dose: 200.0 mg/kg/injection, schedule: Q04DX003 (ip), vehicle: saline) was 91 % of control.

With `CCCCCCCCCCCCCC(=O)N(C)C` the T/C [8] was 97 % of control, the T/C [9] was 97 % of control and the T/C [7] was 93 % of control.

In the case of `ClC1OC(Cl)(Cl)C(Cl)(Cl)OC1(Cl)Cl` (centres undefined), the T/C [1] is reported as 93 % of control, the T/C [2] is reported as 93 % of control and the T/C [3] is reported as 86 % of control.

For `Cc1cnc([Se])[nH]c1=O`, the T/C (dose: 6.25 mg/kg/injection, schedule: Q01DX009 (ip), vehicle: water) was 100 % of control, the T/C (dose: 12.5 mg/kg/injection, schedule: Q01DX009 (ip), vehicle: water) was 96 % of control and the T/C (dose: 25.0 mg/kg/injection, schedule: Q01DX009 (ip), vehicle: water) was 96 % of control. The T/C (dose: 50.0 mg/kg/injection, schedule: Q01DX009 (ip), vehicle: water) was 101 % of control.

`O=C(Cn1cc(F)c(=O)[nH]c1=O)c1ccco1` was tested, and the T/C [4] was 94 % of control, the T/C [1] was 100 % of control and the T/C [2] was 94 % of control.

With `Cc1ccc(CO)cc1C` the T/C (dose: 50.0 mg/kg/injection, schedule: Q04DX003 (ip), vehicle: saline with Tween-80) was 100 % of control, the T/C (dose: 100.0 mg/kg/injection, schedule: Q04DX003 (ip), vehicle: saline with Tween-80) was 102 % of control and the T/C (dose: 200.0 mg/kg/injection, schedule: Q04DX003 (ip), vehicle: saline with Tween-80) was 104 % of control.

For `O=[N+]([O-])c1cc([N+](=O)[O-])c(Nn2c3ccccc3c3ccccc32)c([N+](=O)[O-])c1`, the T/C [5] was 86 % of control, the T/C [6] was 88 % of control and the T/C [7] was 93 % of control.

`CN(C)CCCN1c2ccccc2Sc2ccccc21` was tested, and the T/C (dose: 4.6 mg/kg/injection, schedule: Q01DX009 (ip), vehicle: saline) was 111 % of control, the T/C (dose: 9.3 mg/kg/injection, schedule: Q01DX009 (ip), vehicle: saline) was 111 % of control and the T/C (dose: 18.75 mg/kg/injection, schedule: Q01DX009 (ip), vehicle: saline with Tween-80) was 101 % of control. For the same compound, the T/C (dose: 18.75 mg/kg/injection, schedule: Q01DX009 (ip), vehicle: saline) was 120 % of control, the T/C (dose: 35.5 mg/kg/injection, schedule: Q01DX009 (ip), vehicle: saline) was 111 % of control and the T/C (dose: 37.5 mg/kg/injection, schedule: Q01DX009 (ip), vehicle: saline with Tween-80) was 97 % of control. The T/C [10] was 95 % of control.

In the case of `COc1cccc2c1C(=O)c1c(O)c3c(c(O)c1C2=O)C[C@@](O)(C(=O)COC(=O)Cc1cccc2ccccc12)C[C@@H]3OC1CC(N)C(O)C(C)O1` (some centres undefined), the T/C (dose: 0.5 mg/kg/injection, schedule: Q01DX009 (ip), vehicle: saline with Tween-80) is reported as 169 % of control, the T/C (dose: 1.0 mg/kg/injection, schedule: Q01DX009 (ip), vehicle: saline with Tween-80) is reported as 150 % of control and 227 % of control and the T/C (dose: 2.0 mg/kg/injection, schedule: Q01DX009 (ip), vehicle: saline with Tween-80) is reported as 169 % of control and 238 % of control. For the same compound, the T/C (dose: 4.0 mg/kg/injection, schedule: Q01DX009 (ip), vehicle: saline with Tween-80) was 192 % of control and 284 % of control.

For `CC(C)(C)OC(=O)NCCCC(NC(=O)OCc1ccccc1)C(=O)O` (centres undefined), the T/C [7] was 101 % of control, the T/C (dose: 100.0 mg/kg/injection, schedule: Q01DX009 (ip), vehicle: saline with Tween-80) was 96 % of control and the T/C (dose: 200.0 mg/kg/injection, schedule: Q01DX009 (ip), vehicle: saline with Tween-80) was 96 % of control. For the same compound, the T/C (dose: 400.0 mg/kg/injection, schedule: Q01DX009 (ip), vehicle: saline with Tween-80) was 86 % of control.

In the case of `CC(=O)OC1C2CCC3C(C)(O)C4CC(O)C(C)(C)C4(O)C(O)CC13CC2(C)O` (centres undefined), the T/C (dose: 2.0 micrograms/kg/injection, schedule: Q01DX009 (ip), vehicle: Klucel (hydroxypropylcellulose) (HPC)) is reported as 101 % of control, the T/C (dose: 4.0 micrograms/kg/injection, schedule: Q01DX009 (ip), vehicle: Klucel (hydroxypropylcellulose) (HPC)) is reported as 92 % of control and the T/C (dose: 8.0 micrograms/kg/injection, schedule: Q01DX009 (ip), vehicle: Klucel (hydroxypropylcellulose) (HPC)) is reported as 99 % of control. For the same compound, the T/C (dose: 16.0 micrograms/kg/injection, schedule: Q01DX009 (ip), vehicle: Klucel (hydroxypropylcellulose) (HPC)) was 98 % of control.

In the case of `COC(=O)[C@@H]1[C@H](O)[C@H](C)[C@H](O)[C@H](C)/C=C\C=C(C)C(=O)Nc2c(C)c(OC(C)=O)c3c(c2O)C(=O)C(C)=C2OCOC(=C23)C(C)=C[C@@](C)(O)[C@H](O)[C@@H](C)[C@H]1OC(C)=O`, the T/C [1] is reported as 104 % of control, the T/C (dose: 100.0 mg/kg/injection, schedule: Q01DX009 (ip), vehicle: carboxymethylcellulose (CMC)) is reported as 103 % of control and the T/C [2] is reported as 94 % of control. The T/C (dose: 200.0 mg/kg/injection, schedule: Q01DX009 (ip), vehicle: carboxymethylcellulose (CMC)) was 123 % of control and the T/C (dose: 400.0 mg/kg/injection, schedule: Q01DX009 (ip), vehicle: carboxymethylcellulose (CMC)) was 97 % of control.

`NC(N)=Nc1ccc(C(=O)O)cc1` was tested, and the T/C (dose: 33.0 mg/kg/injection, schedule: Q01DX009 (ip), vehicle: saline with Tween-80) was 100 % of control, the T/C [7] was 96 % of control and the T/C [10] was 96 % of control.

With `O=CNC(Cc1ccccc1)Cc1ccccc1` the T/C (dose: 5.0 mg/kg/injection, schedule: Q01DX009 (ip), vehicle: Klucel (hydroxypropylcellulose) (HPC)) was 96 % of control, the T/C (dose: 10.0 mg/kg/injection, schedule: Q01DX009 (ip), vehicle: Klucel (hydroxypropylcellulose) (HPC)) was 100 % of control and the T/C (dose: 20.0 mg/kg/injection, schedule: Q01DX009 (ip), vehicle: Klucel (hydroxypropylcellulose) (HPC)) was 100 % of control.
